The term IC50 denotes the midpoint of a concentration-inhibition curve. As a reminder, the inhibition is how much of the control response was suppressed. Read a high inhibition as strong suppression.

Where two headings read alike, the source gives them in different places. Where a SMILES comes first, the peptide text is derived from it.

Assay [1] relates to sEH. The note with it: read-out: IC50, sEH inhibitory activity, cited from earlier work.
The target of assay [2] is T1, Human soluble epoxide hydrolase (sEH) (Homo sapiens, UniProt P34913).
T1 construct: purchased Cayman Chemical (Ann Arbor, MI, USA)
T1 sequence (P34913 1-555): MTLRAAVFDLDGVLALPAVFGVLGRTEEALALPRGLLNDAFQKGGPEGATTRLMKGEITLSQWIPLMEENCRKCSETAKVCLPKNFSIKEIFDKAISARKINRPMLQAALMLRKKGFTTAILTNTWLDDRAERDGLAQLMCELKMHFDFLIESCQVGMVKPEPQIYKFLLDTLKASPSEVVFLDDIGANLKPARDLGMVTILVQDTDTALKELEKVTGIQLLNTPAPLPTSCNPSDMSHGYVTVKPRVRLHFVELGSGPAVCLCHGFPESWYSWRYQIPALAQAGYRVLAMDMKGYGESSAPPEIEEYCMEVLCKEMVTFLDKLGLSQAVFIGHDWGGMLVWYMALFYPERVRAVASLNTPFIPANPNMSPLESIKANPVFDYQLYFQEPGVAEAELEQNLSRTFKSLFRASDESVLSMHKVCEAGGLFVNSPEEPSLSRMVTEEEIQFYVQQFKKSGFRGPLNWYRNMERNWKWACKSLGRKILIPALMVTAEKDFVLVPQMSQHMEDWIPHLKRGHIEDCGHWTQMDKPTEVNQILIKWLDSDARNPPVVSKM
The experiment in a line: sEH inhibitory activity assay with fluorescent substrate PHOME. The assay is classed as biochemical. The note with it: 10 µM PHOME, 40 min, mean ± SD n = 3; for inhibition at 100 µM: peptide 100 µM final, 62.5 ng/mL sEH, 37 °C; for IC50: synthesized peptides 20-100 µM. How it is done:
The effects of the concentrations of the enzyme, substrate, and the hydrolysis time of sEH on PHOME were determined according to the methods reported previously. […] After incubating at 37 °C for 5 to 50 min, the fluorescence intensity was measured at an emission wavelength of 465 nm and an excitation wavelength of 330 nm. Bis-Tris-HCl instead of PHOME was used as the blank control. The reaction rate of the system was calculated as follows:(1) The reaction rate (RFU/min)=St - Ct/t where St (RFU) and Ct (RFU) represent the fluorescence intensity of the sample and blank group at t min, respectively. The t (min) represents the reaction time.
The sEH inhibitory activities of peptides were determined as above described. Briefly, 130 µL of 62.5 ng/mL human sEH solution (final concentrations, dissolved in 25 mM bis-Tris-HCl containing 0.1% BSA, pH 7.0) and 20 µL of peptides (final concentrations: synthesized peptides, 20, 40, 60, 80, and 100 µM; corn gluten peptides, 1, 2, 3, 4, and 5 mg/mL, respectively) were added to 96-well plate followed by adding 50 µL of 10 µM PHOME solution (final concentration, dissolved in 25 mM bis-Tris-HCl containing 0.1% BSA, pH 7.0). After incubating at 37 °C for 5 to 40 min, the fluorescence intensity of the mixture at an emission wavelength of 465 nm and an excitation wavelength of 330 nm was determined. […] The sEH inhibitory activity was calculated as follows:(2) sEH inhibitory activity (%)=C40 - S40/C40 - C0×100% where C40 (RFU) and C0 (RFU) represented the fluorescence intensity of the blank control group at 40 and 0 min, respectively. S40 (RFU) represented the fluorescence intensity of the sample group at 40 min.

The mark [3] stands for this setting: isolated from Capsicum chinense.

`C[C@H]1[C@H](C)CC[C@]2(C(=O)O)CC[C@]3(C)C(=CC[C@@H]4[C@@]5(C)CC[C@H](O)C(C)(C)[C@@H]5CC[C@]43C)[C@H]12` [ursolic acid]: in assay [1], the IC50 was 84.5 ± 9.5 µM.

Consider `O=c1c(O)c(-c2ccc(O)cc2)oc2cc(O)cc(O)c12` [kaempferol], for which the IC50 in assay [1] was 31.3 ± 2.6 µM.

For `CC(C)C(=O)Nc1ccc([N+](=O)[O-])c(C(F)(F)F)c1` [flutamide], in assay [1] (from Scutellaria baicalensis), the IC50 is 6.32 ± 0.31 µM.

For the molecule `N[C@@H](Cc1c[nH]c2ccccc12)C(=O)N[C@@H](Cc1ccc(O)cc1)C(=O)N[C@@H](Cc1c[nH]c2ccccc12)C(=O)O` [WYW] (H-Trp-Tyr-Trp-OH), in assay [2], testing at 100 µM gave an inhibition of 60.3 ± 5.6% and the IC50 was determined as 70.7 ± 9.9 µM.

On to `O=c1c(O[C@H]2OC[C@@H](O)[C@@H](O)[C@@H]2O)c(-c2ccc(O)c(O)c2)oc2cc(O)cc(O)c12` [quercetin-3-O-arabinoside], for which, in assay [1], the IC50 is 39.3 ± 3.4 µM.

For the molecule `CC(C)CNC(=O)/C=C/CCc1ccc2c(c1)OCO2` [dihydropiperlonguminine], the IC50 in assay [1] (from Scutellaria baicalensis) is 7.83 ± 0.52 µM.

Take `N[C@@H](Cc1c[nH]c2ccccc12)C(=O)N[C@@H](CCC(=O)O)C(=O)N[C@@H](Cc1ccc(O)cc1)C(=O)O` [WEY] (H-Trp-Glu-Tyr-OH): in assay [2], at 100 µM the inhibition was 70 ± 6.25% and the IC50 was 55.4 ± 1.55 µM.

For the molecule `COc1cc(CNC(=O)CCCCCCC(C)C)ccc1O` [dihydrocapsaicin], the IC50 in assay [1] (setting [3]) was 7.3 ± 0.7 µM.

Consider `C[C@H]1[C@H](C)CC[C@]2(C(=O)O)CC[C@]3(C)C(=CC[C@@H]4[C@@]5(C)C[C@@H](O)[C@H](O)C(C)(C)[C@@H]5CC[C@]43C)[C@H]12` [corosolic acid], for which, in assay [1], the IC50 was 51.3 ± 4.9 µM.

In the case of `N[C@@H](Cc1c[nH]c2ccccc12)C(=O)N[C@@H](Cc1c[nH]c2ccccc12)C(=O)N[C@@H](Cc1ccc(O)cc1)C(=O)O` [WWY] (H-Trp-Trp-Tyr-OH), in assay [2], the inhibition at 100 µM was found to be 55.1 ± 2.38% and the IC50 came to 68.8 ± 7.72 µM.

Take `C[C@@H]1CC[C@]2(C(=O)O)CC[C@]3(C)C(=CC[C@@H]4[C@@]5(C)CC(=O)[C@H](O)C(C)(C)[C@@H]5CC[C@]43C)[C@@H]2[C@]1(C)O` [2-oxopomolic acid]: the IC50 in assay [1] was 11.4 ± 2.7 µM.

In the case of `COc1cc(CNC(=O)CCCC/C=C/C(C)C)ccc1O` [capsaicin], the IC50 in assay [1] (setting [3]) is 5.6 ± 1.2 µM.

As for `O=c1c(O)c(-c2ccc(O)c(O)c2)oc2cc(O)cc(O)c12` [quercetin], the IC50 in assay [1] was 22.5 ± 0.9 µM.

For `N[C@@H](Cc1ccc(O)cc1)C(=O)N[C@@H](Cc1ccccc1)C(=O)N[C@@H](Cc1ccc(O)cc1)C(=O)O` [YFY] (H-Tyr-Phe-Tyr-OH), in assay [2], the inhibition at 100 µM was 53 ± 3.09% and half-maximal inhibition (IC50) required 94.1 ± 12.9 µM.

In the case of `CC(C)CNC(=O)/C=C/C=C/c1ccc2c(c1)OCO2` [piperlonguminine], the IC50 in assay [1] (from Scutellaria baicalensis) is 6.06 ± 0.12 µM.

For `CCCCC/C=C/C=C/C(=O)NCC(C)C` [pellitorine], in assay [1] (from Scutellaria baicalensis), the IC50 was 93.7 ± 4.52 µM.

In assay [2], `N[C@@H](Cc1ccc(O)cc1)C(=O)N[C@@H](Cc1ccccc1)C(=O)N[C@@H](Cc1c[nH]c2ccccc12)C(=O)O` [YFW] (H-Tyr-Phe-Trp-OH) gave an inhibition at 100 µM of 57.4 ± 7.62% and an IC50 of 96 ± 7.5 µM.

The values above are taken from publication PMC9689838, “Screening and Identification of Novel Soluble Epoxide Hydrolase Inhibitors from Corn Gluten Peptides” (Foods, 2022).
